This data set can be described thus: LC/MS measurement of lidocaine and its metabolite MEGX in cerebrospinal fluid of lidocaine-administered subjects. It counts as in vivo, human. The following applies: for concentration detected in cerebrospinal fluid, AD patients versus healthy subjects: cerebrospinal fluids, result in words; for Lidocaine peak ratio to lysine / Lidocaine peak ratio to lysine, average: cerebrospinal fluid; for Lidocaine peak ratio to lysine: individual samples, lidocaine hydrochloride standard dose 200 mg at the puncture site, LC/MS. As for the experimental part:
Cerebrospinal fluids of 17 Alzheimer's disease patients (10 male and 7 female Caucasions) and 17 healthy subjects of similar age, sex and race were used as samples. The samples were collected under epidural anesthesia with lidocaine (lidocaine hydrochloride (standard dose: 200 mg) was hypodermically administered at the puncture site). Protein components were removed from 150 microliters of each cerebrospinal fluid by using an ultrafiltration filter of 5000 NMWL (Ultrafree-MC BIOMAX-5, UFC3BCC00, produced by Millipore). To the cerebrospinal fluid, 25 microliters of a solution containing L-Valine-^13C5, ^15N or L-Lysine-^13C5, ^15N as an internal standard substance (0.1% formic acid, 50% methanol solvent) and 800 microliters of a 0.15% hydrochloric acid solution were added. This sample solution was applied to a solid phase extraction column, Oasis MCX (10 mg), produced by Waters. Washing was performed with 1 mL of water first, then with 1 mL of 50% methanol solvent containing 0.1% formic acid, subsequently with 1 mL of water, and with 1 mL of methanol. Then, elution was performed with 1 mL of a mixture of 25% aqueous ammonia and methanol (2:3, v/v), the eluate was dried, the residue was dissolved again in 25 microliters of 50% methanol, and insoluble substances were removed by using a PVDF membrane filter having a pore size of 0.22 micrometer to prepare a sample for LC/MS.
As for the material packed in the LC column, Primesep A resin (particle size: 5 micrometers, pore size: 100 angstroms) of SIELC Technologies (Prospect Heights, Ill.) was packed in a fused silica capillary having an internal diameter of 150 micrometers (internal surface was treated with TC-WAX, produced by GL Sciences, catalog number: 1010-27012) of which tip was tapered to a diameter of about 8 micrometers beforehand with a laser-based puller P-2000 (produced by Sutter) at a height of about 15 cm under a nitrogen gas pressure of about 7 MPa, and this was used as a column. 50% Methanol containing 0.1% formic acid was used as a mobile phase A, and 90% methanol containing 2% trifluoroacetic acid in addition to 0.1% formic acid was used as a mobile phase B. The concentration gradient of the mobile phase B was, from the start of elution, as follows: 0 minute (0%)-5 minutes (0%)-25 minutes (25%)-25.1 minutes (50%)-50 minutes (100%)-60 minutes (100%), and the flow rate was 1 microliter per minute. Since valine as the internal standard substance was eluted in a period of 5 to 25 minutes, and lysine as the internal standard substance was eluted in a period of 25 to 50 minutes, either one of the internal standard substances was appropriately used for quantification of each substance depending on the elution time. Qstar Pulsar i produced by Applied Biosystems was used in the cation detection mode as the mass spectrometer with an applied voltage of 2400 volts at a DP value of 10 and an IP value of 100 for improving the sensitivity to perform the measurement for the scanning range of 50 to 700 amu.
Further, by the MS/MS measurement, m/z 86.08 and m/z 58.06 were obtained from the former and the latter, respectively, as the product ions. The former was estimated to be that of lidocaine, and the latter was estimated to be that of MEGX, which is a metabolite of lidocaine. Therefore, specimens of these substances were obtained, and measured under the same LC/MS conditions. As a result, the same retention times and mass spectra were obtained, and thus it was confirmed that these peaks were those of lidocaine and MEXG.

Structures are written as SMILES. Values joined by “and” are separate entries in the source; they are usually repeats but may differ in a detail not shown here. Equal entries are not always repeated.

Turning to `CCNCC(=O)Nc1c(C)cccc1C` [MEGX, monoethylglycinexylidide], the “concentration detected in cerebrospinal fluid, AD patients versus healthy subjects” value was “AD patient-specific low concentrations”.
Turning to `CCN(CC)CC(=O)Nc1c(C)cccc1C` [Lidocaine, lidocaine], the “concentration detected in cerebrospinal fluid, AD patients versus healthy subjects” value is on record as “AD patient-specific low concentrations”. Moreover, the “Lidocaine peak ratio to lysine” value (AD patient) is 0.842 and 0.040 and 0.059 and 0.035 and 0.396 and 0.030 and 0.000 (2×) and 0.086 and 0.061 and 0.055 and 0.107 and 0.745 and 0.021 and 0.143 and 0.015 and 0.277. Besides, where the note is “average of 17 AD patients”, the “Lidocaine peak ratio to lysine, average” value was 0.2. In addition, for the setting “average of 17 healthy controls”, the “Lidocaine peak ratio to lysine, average” value came out at 1.427. The “Lidocaine peak ratio to lysine” value (healthy control) is 1.40 and 0.83 and 2.29 and 1.20 and 1.72 and 2.84 and 1.53 and 0.96 and 0.91 and 1.79 and 1.50 and 0.72 and 1.09 and 1.31 and 0.98 and 0.67 and 2.54.

Source of the values: patent US20110065202A1, “Method for Examination of Alzheimer's Disease” (EISAI R&D MANAGEMENT CO., LTD., priority 2008, published 2011).
